# Assays:
# [1] = tested on: influenza virus A/FM/1/47(H1N1), adapted for lungs of white mice; experiment: Model of influenza pneumonia in mice; assay type: in vivo; details: Tamiflu, dose not given, intra-abdominal
# [2] = tested on: hemagglutinin of influenza virus AFM 1/47 (H1N1); experiment: Hemagglutination reaction: influence on hemagglutinin activity of influenza virus; assay type: biochemical
Compound,Difference in virus titers ([2]; concentration 10 mg/ml) [lg2^X],"Virus titer in the experiment ([2]; concentration 10 mg/ml, […]) [lg2^X]",other results
"CCOC(=O)C1=C[C@@H](OC(CC)CC)[C@H](NC(C)=O)[C@@H](N)C1 [Tamiflu, Oseltamivir]",–,–,% died ([1]; preventive regimen): 30 ± 1.0%; CP (Coefficient of protection) ([1]; preventive regimen): 5.0; IE (Index of effectiveness) ([1]; preventive regimen): 70.0; % died ([1]; treatment regimen): 20.0 ± 0.5%; CP (Coefficient of protection) ([1]; treatment regimen): 10.0; IE (Index of effectiveness) ([1]; treatment regimen): 80.0
Polyinosylic acid [Poly I],3,6,–
Polycytydilic acid [Poly C],2,7,–
Polyadenylic acid [Poly A],2,7,–
Polyinosinic:polycytidylic acid [PolyIC],3,9,–
OC[C@@H](O)[C@@H](O)[C@H](O)[C@H](O)CO [Mannitol],–,–,"Difference in the virus titers ([2]; 0.5 mg/ml, temperature of reaction 30 ° C.): 0 log2x; Virus titer in the experiment ([2]; 0.5 mg/ml, temperature of reaction 30 ° C., control virus 8): 8 log2x"
Polyurydylic acid [Poly U],2,9,–
Poliguanylic acid [Poly G],0,9,–
